In patent US20160159814A1, “GLYCINE TRANSPORTER INHIBITOR” (TAISHO PHARMACEUTICAL CO., LTD., priority 2013, published 2016) one finds IC50 data, which are given here for 25 molecules.

This test has as its target T1, human type 1 glycine transporter (GlyT1) (Homo sapiens, UniProt P48067).
T1 construct: T98G cells (glioma cells) expressing human type 1 glycine transporter (GlyT1) were used; endogenous in cells; host or cells: T98G cells (human glioma cells)
T1 sequence (P48067 1-706): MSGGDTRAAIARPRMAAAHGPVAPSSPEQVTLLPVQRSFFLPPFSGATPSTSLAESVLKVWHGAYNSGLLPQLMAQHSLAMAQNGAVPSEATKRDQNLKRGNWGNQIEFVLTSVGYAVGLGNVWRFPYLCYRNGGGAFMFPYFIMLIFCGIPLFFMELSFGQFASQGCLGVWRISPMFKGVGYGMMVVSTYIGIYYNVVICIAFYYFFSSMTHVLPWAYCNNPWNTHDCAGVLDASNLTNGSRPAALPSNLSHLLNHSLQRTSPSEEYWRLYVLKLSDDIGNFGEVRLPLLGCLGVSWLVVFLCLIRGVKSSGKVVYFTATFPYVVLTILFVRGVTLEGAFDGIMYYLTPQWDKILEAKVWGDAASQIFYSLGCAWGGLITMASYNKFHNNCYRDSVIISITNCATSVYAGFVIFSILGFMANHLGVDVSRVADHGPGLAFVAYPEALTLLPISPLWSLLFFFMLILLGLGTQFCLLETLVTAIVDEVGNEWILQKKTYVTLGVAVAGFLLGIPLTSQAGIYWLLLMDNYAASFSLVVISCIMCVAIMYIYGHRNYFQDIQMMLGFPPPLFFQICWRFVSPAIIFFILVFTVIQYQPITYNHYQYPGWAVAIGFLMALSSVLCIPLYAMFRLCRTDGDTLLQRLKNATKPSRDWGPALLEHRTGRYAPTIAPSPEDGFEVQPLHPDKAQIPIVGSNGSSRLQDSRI
Kind of test: Glycine uptake inhibition experiment ([3H] glycine uptake in T98G cells expressing GlyT1). Format: cell-based. As for the experimental part: Glycine Uptake Inhibition Experiment
A glycine uptake experiment was conducted in accordance with the method published in Neuron, 8, 927-935, 1992. In the experiment, T98G cells (glioma cells) expressing human type 1 glycine transporter (GlyT1) were used. The T98G cells were seeded in a 96-well plate at 2.0×10^4 cells/well and cultured overnight in a CO2 incubator. The test substance was dissolved in a 100% DMSO solution and then dissolved in a 10 mM HEPES buffer solution (pH 7.4) containing 150 mM sodium chloride, 1 mM calcium chloride, 5 mM potassium chloride, 1 mM magnesium chloride, 10 mM glucose and 0.2% bovine serum albumin. After removing the cell culture medium, the test substance was subjected to a 10-min pretreatment. Subsequently, the test substance and [^3H] glycine (final concentration: 250 nM) were added to the cells and reaction was performed at room temperature for 15 minutes. After the end of the reaction, the extracellular fluid was aspirated with a manifold to remove excess labeled glycine present outside the cells, and then the cells were lysed with a 0.5 M aqueous sodium hydroxide solution. The glycine content in the cells was determined by measuring the radioactivity in the cell lysate with a liquid scintillation counter. Glycine uptake in the presence of 10 μM ALX5407 was defined as non-specific uptake, and the value calculated by subtracting the amount of the non-specific uptake from the total uptake in the absence of 10 μM ALX5407 was defined as specific uptake. In addition, glycine uptake inhibitory activity (IC50 value) was calculated from an inhibition curve at the concentrations of each test substance ranging from 10^−9 to 10^−5 M. It should be noted that ALX5407 is an HCl salt of N-[(3R)-3-([1,1′-biphenyl]-4-yloxy)-3-(4-fluorophenyl)propyl]-N-methylglycine.

pIC50: −log10 of the molar value. Read-outs that look alike come from different tables or passages of the source.

In the case of `C[C@H](O)c1cccc2c1C(F)(F)C(=O)N2Cc1cc(C#N)ccn1` [Compound 85, 2-({3,3-difluoro-4-[(1S)-1-hydroxyethyl]-2-oxo-2,3-dihydro-1H-indol-1-yl}methyl)pyridine-4-carbonitrile], the pIC50 (as a rule, the negative decadic logarithm of the IC50, by convention in mol/L) (glycine uptake inhibition) is 6.38.

`C[C@H](O)c1cccc2c1C(F)(F)C(=O)N2Cc1ccnc(C#N)c1F` [Compound 173, 4-({3,3-difluoro-4-[(1S)-1-hydroxyethyl]-2-oxo-2,3-dihydro-1H-indol-1-yl}methyl)-3-fluoropyridine-2-carbonitrile] gave a pIC50 of 7.72.

The molecule `O=C1N(Cc2ccnc(C3CC3)c2)c2cccc(C(O)C(F)F)c2C1(F)F` (single isomer, unassigned) [Compound 180, 1-[(2-cyclopropylpyridin-4-yl)methyl]-4-(2,2-difluoro-1-hydroxyethyl)-3,3-difluoro-1,3-dihydro-2H-indol-2-one] gave a pIC50 of 7.28.

With `COc1ccc(CN2C(=O)C(F)(F)c3c([C@H](C)O)cccc32)cn1` [Compound 203, 3,3-difluoro-4-[(1S)-1-hydroxyethyl]-1-[(6-methoxypyridin-3-yl)methyl]-1,3-dihydro-2H-indol-2-one], the negative-log IC50 (pIC50) is 7.51.

For the molecule `C[C@H](O)c1cccc2c1C(F)(F)C(=O)N2Cc1cncc(OC(F)F)c1` [Compound 189, 1-{[5-(difluoromethoxy)pyridin-3-yl]methyl}-3,3-difluoro-4[(1S)-1-hydroxyethyl)-1,3-dihydro-2H-indol-2-one], the pIC50 was 7.10.

As for `N#Cc1cc(CN2C(=O)C(F)(F)c3c(C(O)C(F)(F)F)cccc32)ccn1` (stereo not shown) [Compound 14, 4-{[3,3-difluoro-2-oxo-4-(2,2,2-trifluoro-1-hydroxyethyl)-2,3-dihydro-1H-indol-1-yl]methyl}pyridine-2-carbonitrile], the pIC50 (glycine uptake inhibition) is 6.92.

Under “glycine uptake inhibition”, `C[C@H](O)c1cccc2c1C(F)(F)C(=O)N2Cc1cc(C(F)F)ccn1` [Compound 122, 1-{[4-(difluoromethyl)pyridin-2-yl]methyl}-3,3-difluoro-4-{(1S)-1-hydroxyethyl]-1,3-dihydro-2H-indol-2-one] showed a pIC50 of 6.66.

`O=C1N(Cc2nc3cc(F)ccc3o2)c2cccc(C(O)C(F)F)c2C1(F)F` (single isomer, unassigned) [Compound 171, 4-(2,2-difluoro-1-hydroxyethyl)-3,3-difluoro-1-[(5-fluoro-1,3-benzoxazol-2-yl)methyl]-1,3-dihydro-2H-indol-2-one] showed a negative logarithm of the IC50 (pIC50) of 6.77.

`C[C@H](O)c1cccc2c1C(F)(F)C(=O)N2Cc1ncccc1F` [Compound 208, 3,3-difluoro-1-[(3-fluoropyridin-2-yl)methyl]-4-[(1S)-1-hydroxyethyl]-1,3-dihydro-2H-indol-2-one] gave a pIC50 of 6.82.

`C[C@H](O)c1cccc2c1C(F)(F)C(=O)N2Cc1ccc(-n2ccnn2)nc1` [Compound 197, 3,3-difluoro-4-[(1S)-1-hydroxyethyl]-1-{[6-(1H-1,2,3-triazol-1-yl)pyridin-3-yl]methyl)-1,3-dihydro-2H-indol-2-one] had a pIC50 of 5.17.

For `C[C@H](O)c1cccc2c1C(F)(F)C(=O)N2Cc1cccc(C#N)c1` [Compound 57, 3-({3,3-difluoro-4-[(1S)-1-hydroxyethyl]-2-oxo-2,3-dihydro-1H-indol-1-yl}methyl) benzonitrile], under “glycine uptake inhibition”, the pIC50 is 7.82.

As for `C[C@H](O)c1cccc2c1C(F)(F)C(=O)N2Cc1cccc(-n2nccn2)n1` [Compound 44, 3,3-difluoro-4-[(1S)-1-hydroxyethyl]-1-{[6-(2H-1,2,3-triazol-2-yl)pyridin-2-yl]methyl}-1,3-dihydro-2H-indol-2-one], the pIC50 (glycine uptake inhibition) was 7.17.

For `O=C1N(Cc2ccc(C(F)(F)F)nc2)c2cccc(C(O)C(F)F)c2C1(F)F` (single isomer, unassigned) [Compound 161, 4-(2,2-difluoro-1-hydroxyethyl)-3,3-difluoro-1-{[6-(trifluoromethyl)pyridin-3-yl]methyl}-1,3-dihydro-2H-indol-2-one], the pIC50 was 7.05.

The molecule `CCC(O)c1cccc2c1C(F)(F)C(=O)N2Cc1cccc(Cl)n1` (stereo not shown) [Compound 15, 1-[(6-chloropyridin-2-yl)methyl]-3,3-difluoro-4-(1-hydroxypropyl)-1,3-dihydro-2H-indol-2-one] showed a pIC50 (glycine uptake inhibition) of 6.74.

Take `C[C@H](O)c1cccc2c1C(F)(F)C(=O)N2Cc1ccc(F)c(Cl)n1` [Compound 237, 1-[(6-chloro-5-fluoropyridin-2-yl)methyl]-3,3-difluoro-4-[(1S)-1-hydroxyethyl]-1,3-dihydro-2H-indol-2-one]: the pIC50 was 8.54.

In turn, `C[C@H](O)c1cccc2c1C(F)(F)C(=O)N2Cc1ccc(C(F)(F)F)c(Cl)n1` [Compound 238, 1-{[6-chloro-5-(trifluoromethyl)pyridin-2-yl]methyl}-3,3-difluoro-4-[(1S)-1-hydroxyethyl]-1,3-dihydro-2H-indol-2-one] gave a pIC50 of 8.21.

`C[C@H](O)c1cccc2c1C(F)(F)C(=O)N2Cc1cnc(Cl)c(Cl)c1` [Compound 200, 1-[(5,6-dichloropyridin-3-yl)methyl]-3,3-difluoro-4-[(1S)-1-hydroxyethyl]-1,3-dihydro-2H-indol-2-one] showed a pIC50 of 8.07.

`C[C@H](O)c1cccc2c1C(F)(F)C(=O)N2Cc1ccnc(OC(F)F)c1` [Compound 194, 1-{[2-(difluoromethoxy)pyridin-4-yl]methyl}-3,3-difluoro-4-[(1S)-1-hydroxyethyl]-1,3-dihydro-2H-indol-2-one] gave a negative logarithm of the IC50 (pIC50) of 7.37.

For the molecule `N#Cc1cncc(CN2C(=O)C(F)(F)c3c(C(O)C(F)F)cccc32)c1` (single isomer, unassigned) [Compound 164, 5-{[4-(2,2-difluoro-1-hydroxyethyl)-3,3-difluoro-2-oxo-2,3-dihydro-1H-indol-1-yl]methyl}pyridine-3-carbonitrile], the pIC50 is 6.34.

Regarding `O=C1N(Cc2cncc(Cl)c2)c2ccc(F)c(C(O)C(F)(F)F)c2C1(F)F` (single isomer, unassigned) [Compound 50, 1-[(5-chloropyridin-3-yl)methyl]-3,3,5-trifluoro-4-(2,2,2-trifluoro-1-hydroxyethyl)-1,3-dihydro-2H-indol-2-one], the pIC50 (glycine uptake inhibition) was 6.77.

Molecule `C[C@H](O)c1ccc(F)c2c1C(F)(F)C(=O)N2Cc1ccnc(C#N)c1` [Compound 277, 4-({3,3,7-trifluoro-4-[(1S)-1-hydroxyethyl]-2-oxo-2,3-dihydro-1H-indol-1-yl}methyl)pyridine-2-carbonitrile] had a pIC50 of 7.85.

Turning to `C[C@H](O)c1cccc2c1C(F)(F)C(=O)N2Cc1cc2ccccc2c(=O)n1C` [Compound 100, 3-({3,3-difluoro-4-[(1S)-1-hydroxyethyl]-2-oxo-2,3-dihydro-1H-indol-1-yl}methyl)-2-methylisoquinolin-1(2H)-one], the pIC50 (glycine uptake inhibition) was 7.54.

Turning to `O=C1N(Cc2cccc(C(F)(F)F)n2)c2cccc(C(O)C(F)F)c2C1(F)F` (single isomer, unassigned) [Compound 257, 4-(2,2-difluoro-1-hydroxyethyl)-3,3-difluoro-1-{[6-(trifluoromethyl)pyridin-2-yl]methyl)-1,3-dihydro-2H-indol-2-one], the pIC50 (table section whose head prints (μm)) was 6.96.

For `CC(O)c1c(F)ccc2c1C(F)(F)C(=O)N2Cc1cncc(Cl)c1` (single isomer, unassigned) [Compound 183, 1-[(5-chloropyridin-3-yl)methyl]-3,3,5-trifluoro-4-(1-hydroxyethyl)-1,3-dihydro-2H-indol-2-one], the negative-log IC50 (pIC50) is 8.17.

Where the note is “glycine uptake inhibition”, `O=C1N(Cc2cc3ccccc3c(=O)[nH]2)c2cccc([C@@H](O)C(F)(F)F)c2C1(F)F` [Compound 138, 3-({3,3-difluoro-2-oxo-4-[(1R)-2,2,2-trifluoro-1-hydroxyethyl]-2,3-dihydro-1H-indol-1-yl}methyl) isoquinolin-1(2H)-one] gave a pIC50 of 7.24.
